# Where “and” joins values, the source holds several entries; their conditions need not be identical. Identical values can stand only once.
# Tested on: CAIX-expressing SK-RC-52 tumors
# Assay: Biodistribution in mice bearing SK-RC-52 xenografts
# Type: in vivo
# Conditions: for Biodistribution Bladder / Biodistribution Blood / Biodistribution Brain / Biodistribution Fat / Biodistribution Heart / Biodistribution Kidney / Biodistribution Liver / Biodistribution Lung / Biodistribution Muscle / Biodistribution Pancreas / Biodistribution Small intestine / Biodistribution Spleen / Biodistribution Stomach / Biodistribution Tumor / Tumor/Kidney ratio / Tumor/Blood ratio / Tumor/Muscle ratio: 740 kBq i.v.
# Protocol: Animal experiments were performed in accordance with protocols approved by the Johns Hopkins Animal Care and Use Committee (ACUC). Six-week-old female NOD/SCID mice were purchased from the Animal Resource Core of the Sidney Kimmel Comprehensive Cancer Center of Johns Hopkins and were subcutaneously injected in the lower left flank or upper right flank with 1×10^6 SK-RC-52 cells in RPMI 1640 GlutaMAX™ media (Life Technologies, Frederick, Md.) supplemented with 1% fetal bovine serum (FBS). Mice were monitored for tumor size and used for SPECT/CT imaging when the size of the tumor reached 100 mm^3.
# Mice bearing SK-RC-52 xenografts at lower left flank were injected intravenously with 740 kBq (20 μCi) of [^111In]XYIMSR-01, or [^177Lu]XYIMSR-01 in 200 μL of PBS. For competitive blocking, same tumor bearing mice were injected with 740 kBq (20 μCi) of [^111In]XYIMSR-01 and 200 nmole of 8 in 200 μL of PBS. At 1 h, 4 h, 8 h, 24 h and 48 h post-injection, mice were sacrificed by cervical dislocation and the blood was immediately collected by cardiac puncture. Heart, lungs, pancreas, spleen, fat, brain, muscle, small intestines, liver, stomach, kidney, urinary bladder, and tumor were collected. Each organ was weighed and the tissue radioactivity was measured with an automated gamma counter (1282 Compugamma CS, Pharmacia/LKBNuclear, Inc., Mt. Waverly, Vic. Australia). The percentage of injected dose per gram of tissue (% ID/g) was calculated by comparison with samples of a standard dilution of the initial dose. All measurements were corrected for radioactive decay.
# Data were expressed as mean±standard deviation (SD). Prism software (GraphPAD, San Diego, Calif.) was used to determine statistical significance. Statistical significance was calculated using a paired t test. P-values <0.0001 were considered significant.
# Mice bearing SK-RC-52 xenografts within the lower left flank were injected intravenously with 740 kBq (20 μCi) of [Al^18F]XYIMSR-04 in 200 μL of PBS. At specific 1 hour time point mentioned in the paper, mice (n=5) were sacrificed by cervical dislocation and the blood was immediately collected by cardiac puncture. Heart, lungs, pancreas, spleen, fat, brain, muscle, small intestines, liver, bone, stomach, kidney, urinary bladder, and tumor were collected. Each organ was weighed and the tissue radioactivity was measured with an automated gamma counter (1282 Compugamma CS, Pharmacia/LKBNuclear, Inc., Mt. Waverly, Vic. Australia). The percentage of injected dose per gram of tissue (% ID/g) was calculated by comparison with samples of a standard dilution of the initial dose. All measurements were corrected for radioactive decay. Data were expressed as mean±standard deviation (SD). Prism software (GraphPAD, San Diego, Calif.) was used to determine statistical significance. Statistical significance was calculated using a paired t test. P-values <0.0001 were considered significant.
# Mice bearing SK-RC-52 xenografts within the upper right flank were injected intravenously with 740 kBq (20 μCi) of [^64Cu]XYIMSR-06 in 200 μL of PBS. For in vivo competition (binding specificity) studies, tumor-bearing mice were injected with 740 kBq (20 μCi) of [^64Cu]XYIMSR-06 and 200 nmole of 8 in 200 μL of PBS concurrently. At specific times after injection (1 h, 4 h, 8 h and 24 h), mice (n=5) were sacrificed by cervical dislocation with blood immediately collected by cardiac puncture. Heart, lungs, pancreas, spleen, fat, brain, muscle, small intestines, liver, stomach, kidney, urinary bladder, and tumor were also collected. Each organ was weighed and the tissue radioactivity was measured with an automated gamma counter (1282 Compugamma CS, Pharmacia/LKBNuclear, Inc., Mt. Waverly, Vic. Australia). The percentage of injected dose per gram of tissue (% ID/g) was calculated by comparison with samples of a standard dilution of the initial dose. All measurements were corrected for radioactive decay. Data were expressed as mean±standard deviation (SD). […]
smiles,measurement,setting,value
CC(CCC(=O)N[C@@H](CC(=O)N[C@@H](CC(=O)N[C@@H](CCCCn1cc(CCCC(=O)Nc2nnc(S(N)(=O)=O)s2)nn1)C(=O)NCCOCCOCCNC(=S)Nc1ccc(CC2CN(CC(=O)[O-])CCN(CC(=O)[O-])CCN2CC(=O)O)cc1)C(=O)O)C(=O)O)(c1ccc(O)cc1)c1ccc(O)cc1.[64Cu+2] (stereo partly drawn) [[^64Cu]XYIMSR-06],Biodistribution Bladder,1 h post-injection,11.12 % ID/g
same,Biodistribution Blood,1 h post-injection,0.66 % ID/g
same,Biodistribution Brain,1 h post-injection,1.46 % ID/g
same,Biodistribution Fat,1 h post-injection,0.80 % ID/g
same,Biodistribution Heart,1 h post-injection,3.41 % ID/g
same,Biodistribution Kidney,1 h post-injection,33.65 % ID/g
same,Biodistribution Liver,1 h post-injection,3.25 % ID/g
same,Biodistribution Lung,1 h post-injection,25.52 % ID/g
same,Biodistribution Muscle,1 h post-injection,1.28 % ID/g
same,Biodistribution Pancreas,1 h post-injection,2.94 % ID/g
same,Biodistribution Small intestine,1 h post-injection,7.35 % ID/g
same,Biodistribution Spleen,1 h post-injection,0.36 % ID/g
same,Biodistribution Stomach,1 h post-injection,14.80 % ID/g
same,Biodistribution Tumor,1 h post-injection,14.47 % ID/g
same,Tumor/Kidney ratio,1 h post-injection,0.4
same,Biodistribution Bladder,4 h post-injection,17.05 % ID/g
same,Biodistribution Blood,4 h post-injection,0.33 % ID/g
same,Biodistribution Brain,4 h post-injection,0.29 % ID/g
same,Biodistribution Fat,4 h post-injection,0.52 % ID/g
same,Biodistribution Heart,4 h post-injection,1.78 % ID/g
same,Biodistribution Kidney,4 h post-injection,19.99 % ID/g
same,Biodistribution Liver,4 h post-injection,2.18 % ID/g
same,Biodistribution Lung,4 h post-injection,12.03 % ID/g
same,Biodistribution Muscle,4 h post-injection,0.70 % ID/g
same,Biodistribution Pancreas,4 h post-injection,1.36 % ID/g
same,Biodistribution Small intestine,4 h post-injection,4.15 % ID/g
same,Biodistribution Spleen,4 h post-injection,0.24 % ID/g
same,Biodistribution Stomach,4 h post-injection,8.19 % ID/g
same,Biodistribution Tumor,4 h post-injection,19.31 % ID/g
same,Tumor/Blood ratio,4 h post-injection,57.7
same,Tumor/Kidney ratio,4 h post-injection,1.0
same,Tumor/Muscle ratio,4 h post-injection,29.4
same,Biodistribution Bladder,8 h + block (200 nmole of 8),1.45 % ID/g
same,Biodistribution Blood,8 h + block (200 nmole of 8),0.08 % ID/g
same,Biodistribution Brain,8 h + block (200 nmole of 8),0.04 % ID/g
same,Biodistribution Fat,8 h + block (200 nmole of 8),0.05 % ID/g
same,Biodistribution Heart,8 h + block (200 nmole of 8),0.16 % ID/g
same,Biodistribution Kidney,8 h + block (200 nmole of 8),1.82 % ID/g
same,Biodistribution Liver,8 h + block (200 nmole of 8),0.55 % ID/g
same,Biodistribution Lung,8 h + block (200 nmole of 8),0.77 % ID/g
same,Biodistribution Muscle,8 h + block (200 nmole of 8),0.05 % ID/g
same,Biodistribution Pancreas,8 h + block (200 nmole of 8),0.14 % ID/g
same,Biodistribution Small intestine,8 h + block (200 nmole of 8),0.38 % ID/g
same,Biodistribution Spleen,8 h + block (200 nmole of 8),0.14 % ID/g
same,Biodistribution Stomach,8 h + block (200 nmole of 8),0.69 % ID/g
same,Biodistribution Tumor,8 h + block (200 nmole of 8),2.39 % ID/g
same,Tumor/Blood ratio,8 h + block (200 nmole of 8),32.0
same,Tumor/Kidney ratio,8 h + block (200 nmole of 8),1.3
same,Tumor/Muscle ratio,8 h + block (200 nmole of 8),53.0
same,Biodistribution Bladder,8 h post-injection,7.43 % ID/g
same,Biodistribution Blood,8 h post-injection,0.13 % ID/g
same,Biodistribution Brain,8 h post-injection,0.24 % ID/g
same,Biodistribution Fat,8 h post-injection,0.28 % ID/g
same,Biodistribution Heart,8 h post-injection,0.65 % ID/g
same,Biodistribution Kidney,8 h post-injection,8.14 % ID/g
same,Biodistribution Liver,8 h post-injection,0.99 % ID/g
same,Biodistribution Lung,8 h post-injection,4.64 % ID/g
same,Biodistribution Muscle,8 h post-injection,0.21 % ID/g
same,Biodistribution Pancreas,8 h post-injection,0.47 % ID/g
same,Biodistribution Small intestine,8 h post-injection,1.98 % ID/g
same,Biodistribution Spleen,8 h post-injection,0.18 % ID/g
same,Biodistribution Stomach,8 h post-injection,4.02 % ID/g
same,Biodistribution Tumor,8 h post-injection,16.74 % ID/g
same,All other tumor/organ ratios,24 h,> 10.0
same,Biodistribution Bladder,24 h + block (200 nmole of 8),0.45 % ID/g
same,Biodistribution Blood,24 h + block (200 nmole of 8),0.01 % ID/g
same,Biodistribution Brain,24 h + block (200 nmole of 8),0.02 % ID/g
same,Biodistribution Fat,24 h + block (200 nmole of 8),0.01 % ID/g
same,Biodistribution Heart,24 h + block (200 nmole of 8),0.08 % ID/g
same,Biodistribution Kidney,24 h + block (200 nmole of 8),0.48 % ID/g
same,Biodistribution Liver,24 h + block (200 nmole of 8),0.42 % ID/g
same,Biodistribution Lung,24 h + block (200 nmole of 8),0.29 % ID/g
same,Biodistribution Muscle,24 h + block (200 nmole of 8),0.04 % ID/g
same,Biodistribution Pancreas,24 h + block (200 nmole of 8),0.07 % ID/g
same,Biodistribution Small intestine,24 h + block (200 nmole of 8),0.19 % ID/g
same,Biodistribution Spleen,24 h + block (200 nmole of 8),0.11 % ID/g
same,Biodistribution Stomach,24 h + block (200 nmole of 8),0.29 % ID/g
same,Biodistribution Tumor,24 h + block (200 nmole of 8),1.20 % ID/g
same,Tumor/Blood ratio,24 h + block (200 nmole of 8),27.1
same,Tumor/Kidney ratio,24 h + block (200 nmole of 8),2.4
same,Tumor/Muscle ratio,24 h + block (200 nmole of 8),49.0
same,Biodistribution Bladder,24 h post-injection,0.34 % ID/g
same,Biodistribution Blood,24 h post-injection,0.00 % ID/g
same,Biodistribution Brain,24 h post-injection,0.13 % ID/g
same,Biodistribution Fat,24 h post-injection,0.03 % ID/g
same,Biodistribution Heart,24 h post-injection,0.12 % ID/g
same,Biodistribution Kidney,24 h post-injection,0.90 % ID/g
same,Biodistribution Liver,24 h post-injection,0.38 % ID/g
same,Biodistribution Lung,24 h post-injection,1.27 % ID/g
same,Biodistribution Muscle,24 h post-injection,0.02 % ID/g
same,Biodistribution Pancreas,24 h post-injection,0.21 % ID/g
same,Biodistribution Small intestine,24 h post-injection,0.47 % ID/g
same,Biodistribution Spleen,24 h post-injection,0.09 % ID/g
same,Biodistribution Stomach,24 h post-injection,0.65 % ID/g
same,Biodistribution Tumor,24 h post-injection,6.2 % ID/g and 6.23 % ID/g
same,Tumor/Blood ratio,24 h post-injection,142.6
same,Tumor/Muscle ratio,24 h post-injection,261.3
same,Tumor uptake on co-injection of 200 nmole of 8,"mouse, in vivo",blocked tumor uptake
same,Radiotracer uptake within liver,within 24 h,no significant radiotracer uptake within liver
